Key:
[1] = Human hepatocyte clearance study; format: in vitro ADME; details: human, pooled cryopreserved human hepatocytes (suspension), working cell density 2 × 10^6 viable cells/mL
pooled human hepatocytes = experiment: Human hepatocyte clearance study; format: in vitro ADME
NCI-H2122 xenograft = experiment: NSCLC H2122 xenograft model, tumor volume; format: in vivo, BALB/c nude mice; details: 60 mg/kg oral once daily vs AMG510 at 60 mg/kg; FIG. 3
Protocol: All the procedures related to animal handling, care and the treatment in this study were performed according to the guidelines approved by the Institutional Animal Care and Use Committee (IACUC) of SIPPER B&K following the guidance of the Association for Assessment and Accreditation of Laboratory Animal Care (AAALAC). At the time of routine monitoring, the animals were checked for any effects of tumor growth on normal behavior such as mobility, food and water consumption (by looking only), body weight gain/loss (body weights were measured twice weekly), eye/hair matting and any other abnormal effect. Death and observed clinical signs were recorded on the basis of the numbers of animals within each subset.
The NCI-H358, SW837, NCI-H2122 tumor cells were purchased from the American Type Culture Collection (ATCC). Cells were maintained in vitro as monolayer cultured in RPMI-1640 or DMEM medium supplemented with 10% fetal bovine serum, 50 IU/ml penicillin/streptomycin (GIBCO) at 37° C. in an atmosphere of 5% CO2 in air. […] The cells growing in an exponential growth phase were harvested and counted for tumor inoculation. […]
Tumor volume was calculated by measuring two perpendicular diameters using the following formula: (L×W 2)/2 in which L and W refer to the length and width tumor diameter, respectively. Results are expressed as mean and standard deviation of the mean.

[2] = system: Lung cancer cell line NCI-H358 containing KRas G12C mutation; experiment: Assay for cell proliferation (Cell-titer Glo, 5 days); format: cell-based, human
Method in brief: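 NCI-H358 (KRas G12C) cells, 2000 per well, attached overnight at 37 °C, 5% CO2, then treated with compound for 5 days at 0.5% DMSO final. Proliferation measured by CellTiter-Glo luminescence after 10 min at RT.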

C=CC(=O)N1C[C@H](C)N(c2nc(=O)n(-c3c(C4CC4)ncnc3C3CC3)c3nc(-c4c(N)cccc4F)c(Cl)cc23)C[C@H]1C [Compound 126]
hepatocyte CLint at 1 µM ([1]; read-out: Human In vitro Clint (μl/min/10^6 cells)): 6.6 µL/min/1e6 cells
half-life at 1 µM ([1]; read-out: Human In vitro T1/2): 1.73 h
CLint scaled at 1 µM ([1]; read-out: Human Scale-up Clint): 17 mL/min/kg
human hepatocyte clearance profile compared to control compounds (pooled human hepatocytes): better human hepatocyte clearance profile
Human Hepatocyte Remaining Percentage @ 120 min (%) (pooled human hepatocytes; working cell density 2 × 10^6 viable cells/mL): 47.8%
reducing tumor volume compared with AMG510 (NCI-H2122 xenograft): more effective than AMG510
potency in inhibiting KRAS G12C compared with corresponding isopropyl analogs [2]: better potency
IC50 ([2]; Homo sapiens, NCI-H358, 120 h, NCI-H358, 5 days, Cell-titer Glo, read-out: IC50 (nM), Inhibition of NCI-H358 Cell Proliferation): 0.6 nM
fold more potent: 2-amino-6-fluoro-phenyl compound vs. corresponding 2-fluoro-phenyl compound at R8 ([2]; NCI-H358 IC50 comparison): about 15 ×
